{
  "source": "patent US8124579B2",
  "about": "“Heat shock protein 20-related polypeptides and uses therefor” (Arizona Board of Regents, priority 2003, dated 2012)",
  "system": "Swiss 3T3 cells",
  "assay": "Actin stress fibers and cell morphology, phalloidin staining",
  "assay_type": "cell-based",
  "conditions": "peptides 25 μM, forskolin and lysophosphatidic acid 10 μM, serum 10%, 30 minutes, phalloidin stain",
  "protocol": "Unless otherwise stated, all reagents were purchased from Sigma, St. Louis, Mo. Swiss Albino 3T3 fibroblasts (ATCC, Manassas, Va.) were cultured in DMEM supplemented with 10% BCS, 4 mM L-glutamine and 50 μg/ml penicillin-streptomycin and maintained at 37° C., 5% CO2. Cells were seeded and cultured overnight. Culture media was replaced with DMEM containing 0.5% BCS 1 hour prior to experimentation. Cells were incubated with the peptide analogues or reagent (LPA or forskolin) diluted in DMEM containing 0.5% BCS, 30 minutes at 37° C. Cells were then fixed in 4% paraformaldehyde, permeabilized in 0.25% Triton X-100, and blocked with 1% BSA solution for 1 hour. To determine α-actin cytoskeletal distribution, treated cells were incubated with Alexa 568 phalloidin (Molecular Probes, Eugene, Oreg.) in 1% BSA, 30 min. To determine focal adhesion protein localization, treated cells were incubated with primary monoclonal antibodies for α-actinin (1:100, Upstate, Charlottesville, Va.), vinculin (1:100, Sigma) or paxillin (1:100, BD Bioscience-Transduction Labs, San Jose, Calif.) in 1% BSA solution for 2 hours, rinsed in PBS and incubated 60 minutes with Cy3-goat IgG secondary antibody (Jackson ImmunoResearch, West Grove, Pa.). Slides were mounted and analyzed by confocal microscopy (Leica TCS SP2, Bannockburn, Ill.). […]",
  "data": [
    {"substance": "lysophosphatidic acid", "values": [
      {"measurement": "stress fibers and cell morphology", "result": "displayed robust stress fibers"}
    ]}
  ]
}
